Key:
[1] = target: T1, CDK6/CyclinD3 (Homo sapiens, UniProt Q00534); assay: Kinase activity assay (MSA, EZ Reader) against CDK6; type: biochemical; settings: CDK6/CyclinD3 5.00 nM, ATP 350 µM, FL-Peptide34, 10mM MgCl2
T1 construct: purchased Carna 04-107

[2] = target: CDK4/CycD1 (Homo sapiens, UniProt P11802); assay: Kinase activity assay (MSA, EZ Reader) against CDK4
[3] = test system: human mantle cell lymphoma cells JEKO-1; assay: Cell anti-proliferation assay (MTT), JEKO-1; type: cell-based; settings: Homo sapiens, 120 h, JEKO-1 cells, incubated for 5 days
Protocol: (§1) Human breast cancer cells MCF-7, human ovarian cancer cells A2780, human mantle cell lymphoma cells JEKO-1. DMEM medium (Bio-Channel), DMSO (dimethyl sulfoxide), MTT (thiazolyl blue), 0.25% EDTA-Trypsin (trypsin digestive solution), 1×PBS (phosphate buffered saline, pH 7.2), 96-well plate (Corning), fetal bovine serum (FBS), 10,000 U/mL penicillin-G/streptomycin, high-speed refrigerated centrifuge (EPPENDORF 5810R), and microplate reader (Tecan Spark).
(§2) • A) Tumor cells were cultured in DMEM (high glucose, containing 10% FBS and 100 U/mL penicillin-G/streptomycin) at 37 °C, 5% CO2 and saturated humidity until 80-90% confluence. • B) The medium in the 10 cm culture dish was removed. • C) Cells were rinsed once with 10 mL of 1×PBS. • D) 4 mL of 0.25% EDTA-Trypsin was added, and the cells were digested in a 37 °C, 5% CO2 incubator for 5 minutes. The mixture was transferred to a 15 mL centrifuge tube, centrifuged at 200 g for 5 minutes, and the supernatant was discarded to obtain cell pellet. • E) The cells were resuspended in 4 mL of DMEM medium, counted, and adjusted to 50,000 cells/mL. • F) 100 µL of cell suspension was added to each well of a 96-well plate, and the plate was incubated overnight at 37 °C in a 5% CO2 incubator.
(§3) • A) Gradient dilution solutions of the test compounds were prepared: the test compound was prepared into a 1 mM stock solution. Then 1.5 µL of the stock solution was dissolved in 1.5 mL of DMSO-free medium, followed by 3-fold serial gradient dilution with medium containing 0.1% DMSO to give 9 concentrations.
(§4) • A) The cell culture plate was taken out, and 10 µL of 5 mg/mL MTT was added in a biological safety cabinet; • B) The plate was returned to the incubator and incubated for another 3 hours; • C) The cell culture plate was taken out and the medium was removed, 100 µL of isopropanol (containing 0.4 mM HCl, 0.1% NP-40) was added, and the plate was shaken at room temperature for 30 minutes; • D) The absorbance at 570 nm was measured using a TECAN microplate reader.

[4] = test system: human ovarian cancer cells A2780; assay: Cell anti-proliferation assay (MTT), A2780; type: cell-based; settings: Homo sapiens, 120 h, incubated for 5 days
Protocol: as §1, §2, §3, §4

[5] = test system: Human breast cancer cells MCF-7; assay: Cell anti-proliferation assay (MTT), MCF-7; type: cell-based; settings: Homo sapiens, MCF7, 120 h, MCF-7 cells, incubated for 5 days
Protocol: as §1, §2, §3, §4

[6] = Preclinical pharmacokinetic study in rats; type: in vivo, Sprague-Dawley (SD) rats; settings: male SD rats, oral gavage (p.o.) 10 mg/kg, plasma
Protocol: Healthy adult Sprague-Dawley (SD) rats, male, 6-8 weeks old, weighing 200-300 g. EDTA-Na2 anticoagulant. Analytical balance, animal weighing scale, magnetic stirrer, refrigerated centrifuge, single-channel manual pipette, etc. About 10 mg of the test sample was precisely weighed, dissolved in a calculated volume of 5% DMSO, followed by addition of 10% solutol HS-15 and 85% normal saline. The mixture was sonicated and vortexed to homogeneity to obtain a solution with a concentration of 1 mg/mL. The solution was freshly prepared before use. Animals were housed in rat cages and fasted overnight (no less than 10 h) before the test, with free access to water. On the day of the test, animals were weighed and marked on the tail. Blank blood samples were collected before administration. The blood was collected via tail vein. • Route of administration: oral gavage (p.o.) • Dose: 10 mg/kg • Dosing volume: 10 mL/kg • Procedure: The rat was held upright with the left hand wearing bite-resistant glove. A 16-gauge gavage needle was inserted through the mouth into the esophagus. The needle was advanced gently without obvious resistance, and the drug solution was injected into the stomach. Whole blood (0.1 mL) were collected from each test animal before administration and at 0.5 […], and 24 h after administration into EDTA-Na2 anticoagulant tubes. The tubes were inverted 3-4 times for mixing, then centrifuged at 10,000 g for 5 min at 4 °C to separate plasma. Plasma samples were stored at -80 °C until analysis. Blood was collected via tail vein. […] The mixture was vortexed for 2 min and centrifuged at 10,000 g for 10 min at 4 °C. Processing of unknown plasma samples: 25 μL of drug-containing rat plasma was transferred, followed by addition of 25 μL of methanol and 200 μL of internal standard solution. The mixture was vortexed for 2 min and centrifuged at 10,000 g for 10 min at 4 °C. The supernatant was collected for LC-MS/MS analysis. A quantitative method for the determination of the test compound was established using a Shimadzu liquid chromatography system coupled with Triple Quad^TM 6500+ AB mass spectrometer. The concentration of the parent drug in plasma was determined. The plasma concentration-time curve was plotted, and the main pharmacokinetic parameters were calculated using a non-compartmental model in winnonlin Phoenix software.

T1 sequence (Q00534 whole entry): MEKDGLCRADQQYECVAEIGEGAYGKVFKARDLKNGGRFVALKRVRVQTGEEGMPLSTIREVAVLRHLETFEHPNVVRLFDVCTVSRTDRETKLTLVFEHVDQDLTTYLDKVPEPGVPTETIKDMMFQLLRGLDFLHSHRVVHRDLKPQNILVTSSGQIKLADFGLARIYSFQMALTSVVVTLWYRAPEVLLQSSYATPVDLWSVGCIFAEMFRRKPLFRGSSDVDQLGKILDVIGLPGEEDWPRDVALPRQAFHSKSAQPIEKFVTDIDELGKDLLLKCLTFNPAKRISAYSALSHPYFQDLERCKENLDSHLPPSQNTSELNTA
T1 sequence (P30281 whole entry partner): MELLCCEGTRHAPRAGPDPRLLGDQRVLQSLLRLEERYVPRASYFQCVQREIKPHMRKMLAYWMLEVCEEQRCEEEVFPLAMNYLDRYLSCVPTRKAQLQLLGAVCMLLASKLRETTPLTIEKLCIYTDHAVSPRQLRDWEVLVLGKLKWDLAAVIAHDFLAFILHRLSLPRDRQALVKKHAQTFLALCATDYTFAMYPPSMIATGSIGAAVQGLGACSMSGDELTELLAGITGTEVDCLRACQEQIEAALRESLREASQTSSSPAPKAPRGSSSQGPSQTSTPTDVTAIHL
CDK4/CycD1, sequence (P11802 whole entry): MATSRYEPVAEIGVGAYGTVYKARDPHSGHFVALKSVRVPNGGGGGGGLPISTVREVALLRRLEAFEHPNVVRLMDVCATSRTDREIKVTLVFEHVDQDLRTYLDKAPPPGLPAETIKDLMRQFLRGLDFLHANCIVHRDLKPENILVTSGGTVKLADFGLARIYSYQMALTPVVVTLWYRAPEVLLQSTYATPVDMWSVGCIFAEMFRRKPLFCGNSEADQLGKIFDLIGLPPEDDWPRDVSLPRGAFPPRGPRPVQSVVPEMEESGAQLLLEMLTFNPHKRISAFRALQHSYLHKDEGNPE

Row | SMILES | IC50 [1] [nM] | IC50 [2] [nM] | IC50 [3] [nM] | IC50 [4] [nM] | IC50 [5] [nM] | AUC(0-t) ([6]; Sprague-Dawley, rat) [ng·h/mL] | Cmax ([6]; Sprague-Dawley, rat) [ng/mL] | Tmax ([6]; Sprague-Dawley, rat) [min] | HL_ [6] [h]
1 | C[C@H]1CCN(c2ccc(F)cc2F)c2nc3c(F)cc(-c4nc(N[C@@H]5CCOC[C@H]5O)ncc4Cl)cc3n21 [TC-13] | 74.4 | 3.3 | ≤ 500 | ≤ 500 | ≤ 500 | – | – | – | –
2 | CC(C)n1c(N2CCOC2=O)nc2c(F)cc(-c3nc(Nc4ccc(S(=O)(=O)NCCN(C)C)cc4)nc4[nH]cnc34)cc21 [TB-70] | 76.6 | 18.5 | ≤ 500 | ≤ 500 | ≤ 500 | – | – | – | –
3 | C[C@H]1CCN(C)c2nc3c(F)cc(-c4nc(N[C@@H]5CCOC[C@H]5O)ncc4Cl)cc3n21 [TB-92, (3S,4R)-4-((5-chloro-4-((S)-9-fluoro-1,4-dimethyl-1,2,3,4-tetrahydrobenzo[4,5]imidazo[1,2-a]pyrimidin-7-yl)pyrimidin-2-yl)amino)tetrahydro-2H-pyran-3-ol] | 123 | – | ≤ 500 | ≤ 500 | ≤ 500 | 5020 | 1940 | 30 | 1.21
4 | C[C@H]1CCN(C)c2nc3c(F)cc(-c4nc(N[C@@H]5CCN(S(C)(=O)=O)C[C@H]5O)ncc4Cl)cc3n21 [TB-96] | 20.3 | 2.1 | – | – | – | – | – | – | –
5 | CNS(=O)(=O)c1ccc(Nc2ncc(Cl)c(-c3cc(F)c4nc(N(C)C)n(C(C)C)c4c3)n2)cc1 [TB-20, 4-((5-chloro-4-(2-(dimethylamino)-4-fluoro-1-isopropyl-1H-benzo[d]imidazol-6-yl)pyrimidin-2-yl)amino)-N-methylbenzenesulfonamide] | 141 | 44.6 | – | – | – | – | – | – | –
6 | CC(C)n1c(N2CCOC2=O)nc2c(F)cc(-c3ccnc(NC4CCN(S(C)(=O)=O)CC4)n3)cc21 [TB-94] | 458 | 44.4 | – | – | – | – | – | – | –
7 | CC1(C)Cn2c(nc3c(F)cc(-c4nc(N[C@@H]5CCOC[C@H]5O)ncc4Cl)cc32)S(=O)(=O)C1 [TB-148] | 222 | 71.4 | – | – | – | – | – | – | –
8 | CN1CCn2c1nc1c(F)cc(-c3nc(NC4CCN(S(C)(=O)=O)CC4)ncc3Cl)cc12 [TB-52, 5-chloro-4-(8-fluoro-1-methyl-2,3-dihydro-1H-benzo[d]imidazo[1,2-a]imidazol-6-yl)-N-(1-(methylsulfonyl)piperidin-4-yl)pyrimidin-2-amine] | 40.6 | – | ≤ 500 | ≤ 500 | ≤ 500 | – | – | – | –
9 | CC(C)n1c(N2CCOC2=O)nc2c(F)cc(-c3nc(Nc4ccc(S(C)(=O)=O)cc4)ncc3Cl)cc21 [TB-54, 3-(6-(5-chloro-2-((4-(methylsulfonyl)phenyl)amino)pyrimidin-4-yl)-4-fluoro-1-isopropyl-1H-benzo[d]imidazol-2-yl)oxazolidin-2-one] | 411 | 101 | – | – | – | – | – | – | –
10 | CN1CCCn2c1nc1c(F)cc(-c3nc(Nc4ccncc4)ncc3Cl)cc12 [TB-90] | 95.2 | – | ≤ 500 | ≤ 500 | 500 to 2000 | – | – | – | –
11 | CC1CCN(C)c2nc3c(F)cc(-c4nc(N[C@@H]5CCOC[C@H]5O)ncc4Cl)cc3n21 (mixture of isomers) [TB-44, (3S,4R)-4-((5-chloro-4-(9-fluoro-1,4-dimethyl-1,2,3,4-tetrahydrobenzo[4,5]imidazo[1,2-a]pyrimidin-7-yl)pyrimidin-2-yl)amino)tetrahydro-2H-pyran-3-ol] | 90.2 | – | ≤ 500 | ≤ 500 | ≤ 500 | – | – | – | –
12 | CC(C)n1c(N2CCCC2=O)nc2c(F)cc(-c3nc(N[C@@H]4CCOC[C@H]4O)ncc3Cl)cc21 [TB-23] | – | 185 | – | – | – | – | – | – | –
13 | CC(C)n1c(N2CCCOC2=O)nc2c(F)cc(-c3nc(NC4CCN(S(C)(=O)=O)CC4)ncc3Cl)cc21 [TB-142] | 361 | 69.5 | – | – | – | – | – | – | –
14 | CNS(=O)(=O)N1CCC(Nc2ncc(Cl)c(-c3cc(F)c4nc5n(c4c3)CCCN5C)n2)CC1 [TB-144, 4-((5-chloro-4-(9-fluoro-1-methyl-1,2,3,4-tetrahydrobenzo[4,5]imidazo[1,2-a]pyrimidin-7-yl)pyrimidin-2-yl)amino)-N-methylpiperidine-1-sulfonamide] | 126 | – | ≤ 500 | ≤ 500 | ≤ 500 | – | – | – | –
15 | CCS(=O)(=O)N1CCC(Nc2ncc(Cl)c(-c3cc(F)c4nc5n(c4c3)CCCN5C)n2)CC1 [TB-143, 5-chloro-N-(1-(ethylsulfonyl)piperidin-4-yl)-4-(9-fluoro-1-methyl-1,2,3,4-tetrahydrobenzo[4,5]imidazo[1,2-a]pyrimidin-7-yl)pyrimidin-2-amine] | 58.3 | – | ≤ 500 | ≤ 500 | ≤ 500 | – | – | – | –
16 | COCc1cc(Nc2ncc(Cl)c(-c3cc(F)c4nc5n(c4c3)CCCN5C)n2)ccn1 [TB-130, 5-chloro-4-(9-fluoro-1-methyl-1,2,3,4-tetrahydrobenzo[4,5]imidazo[1,2-a]pyrimidin-7-yl)-N-(2-(methoxymethyl)pyridin-4-yl)pyrimidin-2-amine] | 155 | – | ≤ 500 | ≤ 500 | ≤ 500 | – | – | – | –
17 | CC(C)n1c(N(C)C)nc2c(F)cc(-c3nc(N[C@H]4CC[C@@H](NS(C)(=O)=O)CC4)ncc3Cl)cc21 [TB-4] | – | 27.1 | – | – | – | – | – | – | –
18 | CN1CCCn2c1nc1c(F)cc(-c3nc(N[C@@H]4CCOC[C@H]4O)ncc3Cl)cc12 [TB-40] | 229 | – | ≤ 500 | ≤ 500 | ≤ 500 | – | – | – | –
19 | CN1CCCn2c1nc1c(F)cc(-c3nc(N[C@@H]4CCOC[C@H]4O)ncc3F)cc12 [TB-42, (3S,4R)-4-((5-fluoro-4-(9-fluoro-1-methyl-1,2,3,4-tetrahydrobenzo[4,5]imidazo[1,2-a]pyrimidin-7-yl)pyrimidin-2-yl)amino)tetrahydro-2H-pyran-3-ol] | 195 | – | ≤ 500 | ≤ 500 | ≤ 500 | – | – | – | –
20 | CN1CCn2c1nc1c(F)cc(-c3nc(N[C@@H]4CCOC[C@H]4O)ncc3Cl)cc12 [TB-45, (3S,4R)-4-((5-chloro-4-(8-fluoro-1-methyl-2,3-dihydro-1H-benzo[d]imidazo[1,2-a]imidazol-6-yl)pyrimidin-2-yl)amino)tetrahydro-2H-pyran-3-ol] | 241 | – | ≤ 500 | ≤ 500 | ≤ 500 | – | – | – | –
21 | C[C@@H]1CCN(C)c2nc3c(F)cc(-c4nc(N[C@@H]5CCOC[C@H]5O)ncc4Cl)cc3n21 [TB-91, (3S,4R)-4-((5-chloro-4-((R)-9-fluoro-1,4-dimethyl-1,2,3,4-tetrahydrobenzo[4,5]imidazo[1,2-a]pyrimidin-7-yl)pyrimidin-2-yl)amino)tetrahydro-2H-pyran-3-ol] | 68.4 | – | ≤ 500 | ≤ 500 | ≤ 500 | – | – | – | –

Reference: EP4775575A1, “COMPOUND USED AS CDK4 KINASE INHIBITOR AND USE THEREOF” (TYK Medicines, Inc., priority 2023, dated 2025)
